For orientation: DC50 means the concentration giving 50% degradation. One may read the IC50 as the concentration that inhibits the measured activity by half. As a reminder, the inhibition is the change of the read-out against control, counted positive when it falls. What is called half-life is the time in which the quantity being followed falls by half.

We go through nine compounds from ChEMBL document CHEMBL6153029, “Next-generation cancer therapeutics: PROTACs and the role of heterocyclic warheads in targeting resistance” (Eur J Med Chem, 2025).

The structures appear in SMILES notation.

The target of data set [1] is Protein cereblon/Mitogen-activated protein kinase kinase kinase kinase 1 (Homo sapiens, UniProt Q92918+Q96SW2). In words: PROTAC activity at CRBN/HPK1 in human Jurkat cells assessed as degradation of HPK1 protein by Western blotting analysis. The format is cell-based. On the technique in general: Immunoblotting shows a protein as a band on a membrane.
Protein cereblon/Mitogen-activated protein kinase kinase kinase kinase 1, sequence (Q92918 whole entry): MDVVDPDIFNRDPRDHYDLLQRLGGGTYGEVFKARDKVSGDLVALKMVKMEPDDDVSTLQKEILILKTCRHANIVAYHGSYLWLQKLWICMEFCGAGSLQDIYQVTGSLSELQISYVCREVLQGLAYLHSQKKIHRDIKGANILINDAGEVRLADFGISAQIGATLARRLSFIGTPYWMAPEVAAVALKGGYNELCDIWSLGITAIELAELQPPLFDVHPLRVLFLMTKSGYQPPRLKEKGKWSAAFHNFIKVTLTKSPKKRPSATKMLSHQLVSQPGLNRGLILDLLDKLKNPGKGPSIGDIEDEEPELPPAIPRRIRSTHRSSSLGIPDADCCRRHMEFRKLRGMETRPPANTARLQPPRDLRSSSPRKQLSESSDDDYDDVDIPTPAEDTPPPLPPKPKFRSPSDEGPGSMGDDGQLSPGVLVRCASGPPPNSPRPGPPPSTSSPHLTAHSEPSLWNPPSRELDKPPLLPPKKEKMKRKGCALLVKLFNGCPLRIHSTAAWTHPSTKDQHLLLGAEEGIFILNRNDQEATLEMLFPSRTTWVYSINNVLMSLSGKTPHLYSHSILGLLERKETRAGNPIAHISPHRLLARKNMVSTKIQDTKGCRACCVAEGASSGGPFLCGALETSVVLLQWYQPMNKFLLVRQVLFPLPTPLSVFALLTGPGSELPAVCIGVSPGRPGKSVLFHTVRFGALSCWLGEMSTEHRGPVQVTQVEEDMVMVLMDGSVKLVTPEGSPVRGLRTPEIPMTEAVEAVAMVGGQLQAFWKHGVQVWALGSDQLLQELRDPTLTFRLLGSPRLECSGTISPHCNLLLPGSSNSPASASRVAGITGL
Protein cereblon/Mitogen-activated protein kinase kinase kinase kinase 1, sequence (Q96SW2 whole entry): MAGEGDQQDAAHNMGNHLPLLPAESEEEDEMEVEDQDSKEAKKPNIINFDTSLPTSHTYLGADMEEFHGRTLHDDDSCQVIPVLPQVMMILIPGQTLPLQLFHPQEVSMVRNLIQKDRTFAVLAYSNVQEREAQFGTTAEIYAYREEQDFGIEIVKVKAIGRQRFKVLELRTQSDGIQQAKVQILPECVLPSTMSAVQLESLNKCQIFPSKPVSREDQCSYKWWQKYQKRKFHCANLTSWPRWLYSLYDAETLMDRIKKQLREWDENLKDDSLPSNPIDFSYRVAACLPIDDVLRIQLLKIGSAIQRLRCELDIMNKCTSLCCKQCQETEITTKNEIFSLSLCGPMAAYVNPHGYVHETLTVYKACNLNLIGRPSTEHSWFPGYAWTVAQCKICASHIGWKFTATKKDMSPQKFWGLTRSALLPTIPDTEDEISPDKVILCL
For data set [2], the target named is Mitogen-activated protein kinase kinase kinase kinase 1 (Homo sapiens, UniProt Q92918). Nature of the data set: Inhibition of HPK1 (unknown origin).
Mitogen-activated protein kinase kinase kinase kinase 1, sequence (Q92918 whole entry): as the sequence (Q92918 whole entry) above
Data set [3] has as its target Bromodomain-containing protein 4 (Homo sapiens, UniProt O60885). In words: Inhibition of BRD4 (unknown origin).
Data set [4] addresses Protein cereblon/Tyrosine-protein kinase BTK (Homo sapiens, UniProt Q06187+Q96SW2). Nature of the data set: PROTAC activity at BTK/CRBN in human MINO cells assessed as BTK protein degradation at 20 nM measured after 2 hrs by Western blotting analysis. The format is cell-based.
The test system of a further data set is NCI-H1975. Nature of the data set: Antiproliferative activity against human NCI-H1975 cells assessed as reduction in cell viability by MTT assay. The format is functional, cell-based. In general terms: Formazan colour is commonly taken as a measure of viable cells.
A further data set has as its system A549. Nature of the data set: Antiproliferative activity against human A549 cells assessed as reduction in cell viability by MTT assay. The format is functional, cell-based.
Data set [5] can be described thus: PROTAC activity at VHL/human p38alpha in MDA-MB-231 cells assessed as p38alpha degradation. The format is cell-based.
In data set [6] the target is Platelet-derived growth factor receptor beta (Homo sapiens) (UniProt P09619). Nature of the data set: Inhibition of PDGFRbeta (unknown origin) measured for 48 hrs at 10 uM relative to control.
Platelet-derived growth factor receptor beta (Homo sapiens), sequence (P09619 whole entry): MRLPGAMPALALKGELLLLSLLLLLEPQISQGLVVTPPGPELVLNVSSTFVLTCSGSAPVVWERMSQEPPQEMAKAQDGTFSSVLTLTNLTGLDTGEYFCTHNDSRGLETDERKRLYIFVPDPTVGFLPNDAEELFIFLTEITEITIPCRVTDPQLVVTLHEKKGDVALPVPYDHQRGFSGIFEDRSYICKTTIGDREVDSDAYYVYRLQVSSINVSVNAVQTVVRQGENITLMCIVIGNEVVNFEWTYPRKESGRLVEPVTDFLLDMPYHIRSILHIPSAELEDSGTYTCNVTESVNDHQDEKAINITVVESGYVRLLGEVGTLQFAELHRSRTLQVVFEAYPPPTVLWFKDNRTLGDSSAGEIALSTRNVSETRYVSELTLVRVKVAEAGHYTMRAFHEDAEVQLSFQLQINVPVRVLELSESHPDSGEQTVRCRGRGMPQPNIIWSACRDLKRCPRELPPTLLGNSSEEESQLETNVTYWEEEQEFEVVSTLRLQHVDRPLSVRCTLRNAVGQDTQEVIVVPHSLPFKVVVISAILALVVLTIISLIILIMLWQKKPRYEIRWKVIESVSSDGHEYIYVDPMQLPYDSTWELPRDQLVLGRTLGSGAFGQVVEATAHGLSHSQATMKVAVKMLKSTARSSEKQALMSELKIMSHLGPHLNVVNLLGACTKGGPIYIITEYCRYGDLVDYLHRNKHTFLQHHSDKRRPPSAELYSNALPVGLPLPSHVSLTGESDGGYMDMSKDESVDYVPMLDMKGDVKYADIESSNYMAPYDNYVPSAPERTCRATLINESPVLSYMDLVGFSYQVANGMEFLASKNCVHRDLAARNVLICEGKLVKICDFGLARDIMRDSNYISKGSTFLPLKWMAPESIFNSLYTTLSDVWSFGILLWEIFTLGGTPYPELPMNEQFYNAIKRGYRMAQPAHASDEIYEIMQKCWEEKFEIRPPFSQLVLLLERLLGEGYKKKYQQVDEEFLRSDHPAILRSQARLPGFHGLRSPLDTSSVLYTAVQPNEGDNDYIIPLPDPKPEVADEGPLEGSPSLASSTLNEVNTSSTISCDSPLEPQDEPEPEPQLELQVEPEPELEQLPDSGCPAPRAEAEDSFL
The test system of a further data set is U-87 MG. In words: Antiproliferative activity against human U87 cells. The format is functional, cell-based, U-87MG ATCC.
The target in data set [7] is von Hippel-Lindau disease tumor suppressor/Platelet-derived growth factor receptor beta (Homo sapiens, UniProt P09619+P40337). Nature of the data set: PROTAC activity at VHL/PDGFRbeta in human U87 cells assessed as induction of protein degradation by Western blot analysis. The format is cell-based.
von Hippel-Lindau disease tumor suppressor/Platelet-derived growth factor receptor beta, sequence (P09619 whole entry): as above
von Hippel-Lindau disease tumor suppressor/Platelet-derived growth factor receptor beta, sequence (P40337 whole entry): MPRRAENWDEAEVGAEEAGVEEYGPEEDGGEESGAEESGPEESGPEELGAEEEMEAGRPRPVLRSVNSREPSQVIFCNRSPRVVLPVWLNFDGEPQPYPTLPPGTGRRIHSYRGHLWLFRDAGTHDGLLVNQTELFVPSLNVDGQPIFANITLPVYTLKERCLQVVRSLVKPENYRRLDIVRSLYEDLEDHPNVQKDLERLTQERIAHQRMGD
Data set [8] relates to MCF7. In words: Antiproliferative activity against human MCF7 cells assessed as reduction in cell viability incubated for 48 hrs by MTT assay. The format is functional, cell-based. Particulars: MCF7, 48 h.
The test system of data set [9] is MCF7. Nature of the data set: Antiproliferative activity against human MCF7 cells assessed as reduction in cell viability at 25 uM incubated for 72 hrs by resazurin based assay relative to control. The format is functional. For orientation: Alamar Blue is a resazurin reagent that responds to reducing activity.
Data set [10] relates to MCF7. Nature of the data set: Antiproliferative activity against human MCF7 cells.
The subject of the next data set is T47D. Nature of the data set: Antiproliferative activity against human T47D cells.
In data set [11] the test system is MDA-MB-231. Nature of the data set: Antiproliferative activity against human MDA-MB-231 cells.
The subject of the next data set is MDA-MB-468. Nature of the data set: Antiproliferative activity against human MDA-MB-468 cells.
The subject of data set [12] is Pfeiffer. In words: Antiproliferative activity against human Pfeiffer cells.
The test system of data set [13] is MDA-MB-231. In words: Induction of cell cycle arrest in human MDA-MB-231 cells assessed as G0/G1 phase arrest at 12.3 to 1000 nM incubated for 24 hrs by PI staining based flow cytometry analysis. In kind it is functional. Particulars: dose 12.3-1000 nM.
Data set [14] relates to Pfeiffer. In words: Induction of cell cycle arrest in human Pfeiffer cells assessed as G0/G1 phase arrest at 100 nM incubated for 24 hrs by PI staining based flow cytometry analysis. The format is functional.
A short description of data set [15]: Intrinsic clearance in mouse liver microsomes. Particulars: read-out: CLH. The format is ADME, Microsome.
A short description of data set [16]: Half life in mouse. Particulars: in vivo. The format is ADME, organism-based.

Protein cereblon/Tyrosine-protein kinase BTK, sequence (Q06187 whole entry): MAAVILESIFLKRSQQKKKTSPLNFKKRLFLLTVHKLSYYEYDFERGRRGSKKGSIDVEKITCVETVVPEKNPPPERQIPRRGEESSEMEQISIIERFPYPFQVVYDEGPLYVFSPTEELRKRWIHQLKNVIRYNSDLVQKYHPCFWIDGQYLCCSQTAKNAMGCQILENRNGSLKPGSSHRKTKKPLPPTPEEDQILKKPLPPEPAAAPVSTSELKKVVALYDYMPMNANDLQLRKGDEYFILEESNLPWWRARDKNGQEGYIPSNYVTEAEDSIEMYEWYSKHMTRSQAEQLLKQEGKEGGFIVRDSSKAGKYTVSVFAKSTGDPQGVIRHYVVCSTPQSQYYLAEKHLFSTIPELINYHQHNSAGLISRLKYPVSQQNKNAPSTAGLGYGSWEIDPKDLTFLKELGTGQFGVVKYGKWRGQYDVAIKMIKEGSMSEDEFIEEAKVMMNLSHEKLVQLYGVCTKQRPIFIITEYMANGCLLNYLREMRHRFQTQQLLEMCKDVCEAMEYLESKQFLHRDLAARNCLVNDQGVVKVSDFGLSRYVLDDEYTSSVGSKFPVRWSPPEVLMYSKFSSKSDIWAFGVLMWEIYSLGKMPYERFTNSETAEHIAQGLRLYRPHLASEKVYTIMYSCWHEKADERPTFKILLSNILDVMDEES
Protein cereblon/Tyrosine-protein kinase BTK, sequence (Q96SW2 whole entry): as the sequence (Q96SW2 whole entry) above

With `COc1ccc(-c2c[nH]c3ccc(-c4ccc(N5CCN(C(=O)CCOCCNc6cccc7c6C(=O)N(C6CCC(=O)NC6=O)C7=O)CC5)cc4)cc23)cc1OC` (stereo unspecified), the 50% degradation concentration (DC50) in data set [1] worked out at 1.8 nM. Also, inhibition in data set [2] was half-maximal at 140 nM (IC50).

In [3], `CCS(=O)(=O)Nc1ccc(Oc2ccc(F)cc2F)c(-c2cn(C)c(=O)c3[nH]ccc23)c1` [MIVEBRESIB] returned an IC50 of 2.6 nM.

With `Nc1ncnc2c1c(-c1ccc(Oc3ccccc3)cc1)nn2[C@@H]1CCCN(C(=O)CCCCCNc2ccc3c(c2)C(=O)N(C2CCC(=O)NC2=O)C3)C1` (stereo partly specified), the DC50 in data set [4] stood at 3.8 nM.

Consider `COc1cc2ncnc(Nc3ccc(Cl)c(Cl)c3F)c2cc1Oc1ccc(NC(=O)CCCCCCC(=O)Nc2cccc3c2CN(C2CCC(=O)NC2=O)C3=O)cc1` (stereo unspecified), for which the IC50 in the data set with NCI-H1975 came to 2100 nM; with A549, 67000 nM.

Regarding `Cc1ccc(C(=O)NCCCc2cn(CCCC(=O)NCCCCCC(=O)N[C@H](C(=O)N3C[C@H](O)C[C@H]3C(=O)N[C@@H](C)c3ccc(-c4scnc4C)cc3)C(C)(C)C)nn2)cc1-n1c(C)cc(OCc2ccc(F)cc2F)c(Br)c1=O`, the DC50 in data set [5] was found to be 11.6 nM.

In the case of `Cc1ncsc1-c1ccc(CNC(=O)[C@@H]2C[C@@H](O)CN2C(=O)[C@@H](NCCCCNC(=O)CNC(=O)c2cc(Oc3ccc(NC(=O)Nc4ccc(Cl)c(C(F)(F)F)c4)cc3)ccn2)C(C)(C)C)cc1`, the inhibition in data set [6] is more than 70%.

Compound `Cc1cccc(NC(=O)Nc2ccc(-c3cccc4c3c(N)nn4C(=O)CCCNC(=O)C3CC4CC3c3c4cnnc3-c3ccc(NC(=O)CCC(=O)N[C@H](C(=O)N4C[C@H](O)C[C@H]4C(=O)NCc4ccc(-c5scnc5C)cc4)C(C)(C)C)cc3)cc2)c1F` (stereo partly specified) had an IC50 in the data set with U-87 MG of more than 100000 nM. Also, the DC50 in [7] came out at 257 nM.

On to `Nc1nc2cc(-c3nn(Cc4cn(CCCCCC(=O)Nc5cccc6c5C(=O)N(C5CCC(=O)NC5=O)C6=O)nn4)c4ncnc(N)c34)ccc2o1` (stereo unspecified), for which the IC50 with MCF7 [8] was 87 nM. Besides, the Activity in the data set on MCF7 [9] amounted to 90%.

For the compound `COc1cc(C)[nH]c(=O)c1CNC(=O)c1cccc2c1c(C)cn2[C@H](C)C1CCN(CCCCCCCCCC(=O)N[C@H](C(=O)N2C[C@H](O)C[C@H]2C(=O)NCc2ccc(-c3scnc3C)cc2)C(C)(C)C)CC1`, the IC50 in the data set with MCF7 [10] came to 4150 nM; in the data set with T47D, 6850 nM; in the data set with MDA-MB-231 [11], 4480 nM; with MDA-MB-468, 1400 nM; with Pfeiffer [12], 2050 nM. The Activity with MDA-MB-231 [13] turned out to be 68.38%; in the data set on Pfeiffer [14], 11.74%. In addition, the CLint scaled in data set [15] worked out at 150 mL/min/kg. The compound further returned a half-life in [16] of 1.07 h.
